Data reported in US7687484B2, “Transporter enhanced corticosteroid activity” (priority 2006, dated 2010).
Entries after “also recorded” stand apart in the source; their conditions may differ. Like-named read-outs stand apart in the source and are kept apart here.

Tests used:
[1] = molecular target: T1, Corticosteroid Binding Globulin (CBG), transcortin (Homo sapiens, UniProt P08185); conditions: cited from earlier work; for Class: CBG binding activity class; for Log 1/K: CBG binding affinity, literature data
T1 sequence (P08185 23-405): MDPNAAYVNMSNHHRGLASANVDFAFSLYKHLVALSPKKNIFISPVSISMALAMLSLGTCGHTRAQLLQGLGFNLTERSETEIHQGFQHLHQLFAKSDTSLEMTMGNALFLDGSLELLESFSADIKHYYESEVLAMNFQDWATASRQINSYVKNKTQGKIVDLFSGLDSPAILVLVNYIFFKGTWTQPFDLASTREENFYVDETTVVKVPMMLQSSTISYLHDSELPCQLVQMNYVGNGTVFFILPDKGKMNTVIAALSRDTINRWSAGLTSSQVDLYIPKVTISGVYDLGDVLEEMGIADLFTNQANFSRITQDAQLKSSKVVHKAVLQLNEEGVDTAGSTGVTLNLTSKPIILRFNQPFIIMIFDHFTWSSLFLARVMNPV

transcortin (CBG) = molecular target: T2, transcortin (CBG) (Homo sapiens, UniProt P08185); assay: Binding of corticosteroids to transcortin: 3H-cortisol competition in charcoal-treated diluted plasma
T2 construct: from tissue; host or cells: plasma from venous blood of healthy volunteers, charcoal-treated, diluted 100-fold
T2 sequence (P08185 23-405): T1 sequence (P08185 23-405)
Experimental: Experimental procedure: Venous blood was collected from healthy volunteers into heparin-containing tubes (5 Us/100 ml serum) and cells were separated from plasma by centrifugation (1500 g for 15 min). […] Charcoal-treated plasma was diluted 100-fold with binding buffer (10 mM Tris-HCl; 2 mM DTT (dithiotreitol); 1.5 mM EDTA; 0.02 M Na2MoO4; 10% Glycerol; pH 7.4) and was stored aliquoted at −80° C. […] The assay ingredients were mixed and the tubes were incubated for 1 hour on ice. At the end of the incubation, 0.2 ml of charcoal suspension (0.5% Norit A and 0.05% BSA) was added to each tube. The tubes were briefly agitated and incubated for an additional 10 min at 0° C. They were then centrifuged for 10 min at 15 000 g, and the same aliquots from the clear supernatants were quantitatively decanted into counting vials and combined with 3 ml of toluene-based scintillation fluid. […] Specific binding and IC50-values were calculated.

[2] = tested on: forearms of human volunteers; assay: Human vasoconstriction (blanching) testing; format: in vivo; set-up: key to Vasoconstriction activity (total score of 4 tests): sum of 4 tests, each 0 = normal skin to 4 = very intense pallor
Experimental: Solutions of LE, HC and PRN (0.1 or 1 mM) alone, or mixtures of LE and HC (0.1+0.1 mM, or 1+1 mM), or LE and PRN (0.1+0.1 mM, or 1+1 mM) were prepared with a vehicle containing absolute ethanol and propylene glycol (9:1). […] After evaporation of ethanol (20 min), the films were applied to the forearms of human volunteers for 4 hours. Subsequently, the vasoconstriction reaction was read and judged by the appearance of pallor at various time intervals after the removal of the discs and films. The grading scale was as follows: 0, normal skin; 1, slight pallor; 2, pallor with at least two corners outlined; 3, even pallor with a clear outlined of the application sites; 4, very intense pallor. Due to the relatively high variations in response between the volunteers, a total score of 4 tests at each time point was taken for the activity evaluation.

[3] = 3 nM 3H-cortisol, 1 hour on ice, plasma diluted 100-fold, read-out: IC50-values (nM) average ± SEM (n)
[4] = estimated, unpublished results Bodor, Kurucz 2006, read-out: CBG Est. IC50

Row | SMILES | Class [1] | Log 1/K [1] | also measured
1 | C[C@@H]1C[C@@]2(C)C(=CC1=O)CC[C@H]1[C@@H]3CC[C@](O)(C(=O)CO)[C@@]3(C)C[C@H](O)[C@@]12F [2α-methyl-9α-fluoro-cortisol] | 2 | −5.797 | 
2 | CC1CC2(C)C(=CC1=O)CCC1C2C(O)CC2(C)C1CCC2(O)C(=O)CO (stereo not drawn) [2α-methylcortisol] | 1 | −7.688 | 
3 | C[C@]12CCC(=O)C=C1CC[C@@H]1[C@@H]2CC[C@]2(C)C(=O)CC[C@@H]12 [4-androstenedione] | 3 | −5.763 | 
4 | CC(=O)[C@H]1CC[C@H]2[C@@H]3CCC4=CC(=O)CC[C@]4(C)[C@H]3C(=O)C[C@]12C [4-pregnene-3,11,20-trione] | 2 | −6.779 | 
5 | C[C@]12CC[C@H]3[C@@H](CCC4=CC(=O)CC[C@@]43C)[C@@H]1CC[C@@H]2C(=O)CO [11-deoxycorticosterone] | 1 | −7.653 | 
6 | C[C@]12CCC(=O)C=C1CC[C@@H]1[C@@H]2CC[C@@]2(C)[C@H]1CC[C@]2(O)C(=O)CO [11-deoxycortisol] | 1 | −7.881 | 
7 | CC(=O)[C@@]1(O)[C@H](O)C[C@H]2[C@@H]3CCC4=CC(=O)CC[C@]4(C)[C@H]3CC[C@@]21C [16α,17α-dihydroxyprogesterone] | 2 | −6.247 | 
8 | CC(=O)[C@H]1[C@H](C)C[C@H]2[C@@H]3CCC4=CC(=O)CC[C@]4(C)[C@H]3CC[C@@]21C [16α-methylprogesterone] | 1 | −7.120 | 
9 | CC(=O)[C@@]1(O)CC[C@H]2[C@@H]3CC=C4C[C@@H](O)CC[C@]4(C)[C@H]3CC[C@@]21C [17α-hydroxypregnenolone] | 3 | −5.000 | 
10 | CC(=O)[C@@]1(O)CC[C@H]2[C@@H]3CCC4=CC(=O)CC[C@]4(C)[C@H]3CC[C@@]21C [17α-hydroxyprogesterone] | 1 | −7.740 | 
11 | CC(=O)[C@H]1CC[C@H]2[C@@H]3CCC4=CC(=O)CC[C@@H]4[C@H]3CC[C@]12C [19-norprogesterone] | 2 | −6.817 | 
12 | C[C@]12CC[C@H]3[C@@H](CCC4=CC(=O)CC[C@@H]43)[C@@H]1CC[C@@H]2O [19-nortestosterone] | 2 | −6.144 | 
13 | COC(=O)[C@@]1(O)CCC2C3CCC4=CC(=O)CC[C@]4(C)C3[C@@H](O)C[C@@]21C (stereo partly drawn) [CA-Me GYKI-25806] |  |  | IC50 (transcortin (CBG); [3]): 5.9 ± 1.4 nM
14 | C[C@]12C=CC(=O)C=C1CC[C@@H]1[C@@H]2[C@@H](O)C[C@@]2(C)[C@H]1C[C@H]1O[C@@H](C3CCCCC3)O[C@]12C(=O)CO [Ciclesonide, act. metab.] |  |  | IC50 (transcortin (CBG); [4]): > 10000 nM
15 | C[C@@H]1C[C@H]2[C@@H]3CCC4=CC(=O)C=C[C@]4(C)[C@@]3(Cl)[C@@H](O)C[C@]2(C)[C@@]1(OC(=O)c1ccco1)C(=O)CCl [Mometasone furoate] |  |  | IC50 (transcortin (CBG); [4]): > 10000 nM
16 | C[C@]12C=CC(=O)C=C1CCC1C2[C@@H](O)C[C@@]2(C)C1CC[C@]2(O)C(=O)CO (stereo partly drawn) [Prednisolone, prednisolone] | 1 |  | IC50 (transcortin (CBG); CBG Est. IC50 (nM), estimated, unpublished results Bodor, Kurucz 2006): 7 nM; IC50 (transcortin (CBG); IC50-values (nM) average ± SEM (n), 3 nM 3H-cortisol, 1 hour on ice, plasma diluted 100-fold): 6.7 ± 1.6 nM; Vasoconstriction activity (total score of 4 tests) ([2]; 0.1 mM, 2 hr after removal, 4 h application): 0; Vasoconstriction activity (total score of 4 tests) ([2]; 0.1 mM, 4 hr after removal): 0; Vasoconstriction activity (total score of 4 tests) ([2]; 0.1 mM, 6 hr after removal): 0; Vasoconstriction activity (total score of 4 tests) ([2]; 0.1 mM, 8 hr after removal): 0; Vasoconstriction activity (total score of 4 tests) ([2]; 0.1 mM, 10 hr after removal): 0; Vasoconstriction activity (total score of 4 tests) ([2]; 0.1 mM, 16 hr after removal): 0; Vasoconstriction activity (total score of 4 tests) ([2]; 0.1 mM, 18 hr after removal): 0; Vasoconstriction activity (total score of 4 tests) ([2]; 0.1 mM, 24 hr after removal): 0; Vasoconstriction activity (total score of 4 tests) ([2]; 1 mM, 2 hr after removal, 4 h application): 0; Vasoconstriction activity (total score of 4 tests) ([2]; 1 mM, 4 hr after removal): 0; Vasoconstriction activity (total score of 4 tests) ([2]; 1 mM, 6 hr after removal): 0; Vasoconstriction activity (total score of 4 tests) ([2]; 1 mM, 8 hr after removal): 0; Vasoconstriction activity (total score of 4 tests) ([2]; 1 mM, 10 hr after removal): 0; Vasoconstriction activity (total score of 4 tests) ([2]; 1 mM, 16 hr after removal): 0; Vasoconstriction activity (total score of 4 tests) ([2]; 1 mM, 18 hr after removal): 0; Vasoconstriction activity (total score of 4 tests) ([2]; 1 mM, 24 hr after removal): 0; Vasoconstriction activity alone (in words) ([2]; by itself, concentration range 0.1 to 1 mM, human skin, listed as PRN): do not yield any detectable activity; also recorded: no activity
17 | C[C@]12C=CC(=O)C=C1CCC1C2C(=O)C[C@@]2(C)C1CC[C@]2(O)C(=O)CO (stereo partly drawn) [Prednisone, prednisone] |  |  | IC50 (transcortin (CBG); [3]): 36 ± 11 nM
18 | C[C@]12CCC(=O)C=C1CC[C@@H]1[C@@H]2[C@@H](O)C[C@]2(C=O)[C@@H](C(=O)CO)CC[C@@H]12 [aldosterone] | 2 | −6.279 | 
19 | C[C@]12CCC(O)C[C@@H]1CC[C@@H]1[C@@H]2CC[C@]2(C)[C@@H](O)CC[C@@H]12 (stereo partly drawn) [androstanediol] | 3 | −5.000 | 
20 | CCCC1O[C@@H]2C[C@H]3[C@@H]4CCC5=CC(=O)C=C[C@]5(C)[C@H]4[C@@H](O)C[C@]3(C)[C@]2(C(=O)CO)O1 (stereo partly drawn) [budesonide (BUD), budesonide] |  |  | IC50 (transcortin (CBG); [4]): > 10000 nM
21 | CC(=O)OCC(=O)[C@@]1(O)CC[C@H]2[C@@H]3CCC4=CC(=O)CC[C@]4(C)[C@H]3[C@@H](O)C[C@@]21C [cortisolacetat] | 1 | −7.553 | 
22 | C[C@]12CCC(=O)C=C1CC[C@@H]1[C@@H]2C(=O)C[C@@]2(C)[C@H]1CC[C@]2(O)C(=O)CO [cortisone] | 2 | −6.892 | 
23 | C[C@]12CC[C@H](O)CC1=CC[C@@H]1[C@@H]2CC[C@]2(C)C(=O)CC[C@@H]12 [dehydroepiandrosterone] | 3 | −5.000 | 
24 | C[C@]12C[C@@H](O)[C@H]3[C@@H](CCC4=CC(=O)CC[C@@]43C)[C@@H]1CC[C@@H]2C(=O)CO [epicorticosterone] | 1 | −7.200 | 
25 | C[C@]12CC[C@@H]3c4ccc(O)cc4CC[C@H]3[C@@H]1C[C@@H](O)[C@@H]2O [estriol] | 3 | −5.000 | 
26 | CC(=O)[C@H]1CC[C@H]2[C@@H]3CC=C4C[C@@H](O)CC[C@]4(C)[C@H]3CC[C@]12C [pregnenolone] | 3 | −5.225 | 
27 | CC(=O)[C@H]1CC[C@H]2[C@@H]3CCC4=CC(=O)CC[C@]4(C)[C@H]3CC[C@]12C [progesterone] | 1 | −7.380 | 
28 | C[C@]12CC[C@H]3[C@@H](CCC4=CC(=O)CC[C@@]43C)[C@@H]1CC[C@@H]2O [testosterone] | 2 | −6.724 | 
